The record followed here is patent US11691972B2, “Compounds for targeted degradation of BRD9” (C4 Therapeutics, Inc., priority 2020, dated 2023).

In one data set the target is T1, BRD9 (Homo sapiens, UniProt Q9H8M2).
T1 sequence (Q9H8M2 1-597): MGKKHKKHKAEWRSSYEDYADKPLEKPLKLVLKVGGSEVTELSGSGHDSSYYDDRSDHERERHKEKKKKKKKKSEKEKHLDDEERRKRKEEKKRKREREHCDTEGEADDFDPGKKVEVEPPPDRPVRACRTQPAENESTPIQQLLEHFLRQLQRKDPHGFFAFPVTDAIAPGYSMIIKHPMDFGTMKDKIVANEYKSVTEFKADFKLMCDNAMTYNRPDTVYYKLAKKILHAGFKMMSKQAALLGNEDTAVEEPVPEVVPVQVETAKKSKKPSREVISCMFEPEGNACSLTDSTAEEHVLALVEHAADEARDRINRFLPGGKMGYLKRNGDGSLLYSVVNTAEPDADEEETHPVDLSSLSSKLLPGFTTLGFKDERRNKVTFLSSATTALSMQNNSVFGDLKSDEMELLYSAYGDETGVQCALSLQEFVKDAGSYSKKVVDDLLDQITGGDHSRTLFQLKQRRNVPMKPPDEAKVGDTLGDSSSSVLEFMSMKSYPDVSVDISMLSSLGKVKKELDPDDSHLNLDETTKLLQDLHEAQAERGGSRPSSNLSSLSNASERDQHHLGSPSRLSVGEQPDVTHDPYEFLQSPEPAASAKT
In words: Western blot, in-vivo BRD9 degradation in Yamato-SS tumors. Details: inoculated subcutaneously into BALB/c nude mice at the right flank for tumor development; from tissue; host or cells: Yamato-SS xenograft tumours in BALB/c nude mice; species or system BALB/c nude mice. As for the experimental part: Yamato-SS cells were maintained in vitro until exponential growth phase and inoculated subcutaneously into BALB/c nude mice at the right flank for tumor development. Mice were treated with single dose of Compound 172 at 10 or 75 mg/kg PO. Tumor were collected at indicated time points and snap frozen until lysis. Tumors were ground and lysed in RIPA Buffer containing 2× protease/phosphatase inhibitor using a freeze grinder at 50 Hz for 5 minutes. Protein concentrations were determined by Pierce™ BCA Protein Assay Kit. Samples were diluted to appropriate concentrations and run in a western blot.
Yamato-SS were maintained in vitro until exponential growth phase and inoculated subcutaneously into BALB/c nude mice at the right flank. Mice were treated with single dose of Compound 176 at 3, 12 or 50 mg/kg PO. Tumor were collected at indicated time points and snap frozen until lysis. Tumors were ground and lysed in RIPA Buffer containing 2× protease/phosphatase inhibitor using a freeze grinder at 50 Hz for 5 minutes. Protein concentrations were determined by Pierce™ BCA Protein Assay Kit. Samples were diluted to appropriate concentrations and run in a western blot.
FIG. 20 is a histogram reflecting quantitated bands from FIG. 19. The x axis is time measured in hours and the y axis is BRD9 remaining normalized to vehicle and vinculin measured in percentage.
For orientation: Immunoblotting shows a protein as a band on a membrane.

Data set [1] is described as follows: Hepatocyte stability, mouse. It counts as in vitro ADME. As to conditions: mouse hepatocytes; read-out: Hepatocyte stability, Clint scaled ws.
The nature of a further data set: PO PK, rat. Format: in vivo. As to conditions: for PO PK AUC(0-last) / PO PK Cmax: dose-normalised; for bioavailability / half-life: in vivo; for bioavailability: read-out: PO PK F%; for half-life: read-out: PO PK t1/2 (converted).
A short description of data set [2]: Hepatocyte stability, human. It counts as in vitro ADME. As to conditions: human hepatocytes; read-out: Hepatocyte stability, Clint scaled ws.
A further data set can be described thus: Plasma stability, dog. It counts as in vitro ADME.
Data set [3] concerns Yamato (SS18-SSX fusion; BAF perturbed) cells. In words: Confluence perturbation (IncuCyte S3) in Yamato cells. It counts as cell-based. The note with it: 10 nM to 10^4 nM, single dose, 20-day period; FIG. 4, 16, 17; SW982 cells also tested. As for the experimental part:
FIG. 4, FIG. 16, and FIG. 17 are line graphs illustrating the confluence caused by Compound 172 and Compound 176 at various concentrations. The x-axis is time measured in days and the y axis is confluence measured as a percentage of control. The compounds were incubated at 10 nM, 32 nM, 100 nM, 316 nM, 1000 nM, and 10^4 nM concentrations at a single dose. The compounds were tested in a Yamato (SS18-SSX fusion; BAF perturbed) cells and SW982 (BAF wildtype) cells.
Compound 172 was serially diluted in DMSO and 200 nL were dispensed into 96 well tissue-culture treated plates by the Echo acoustic liquid handler. Yamato cells were counted and adjusted to 11,000 cells/mL with DMEM media supplemented with 10% heat-inactivated FBS. 200 ul of the cell suspension was dispensed into each well. The plate was sealed with a gas-permeable membrane and confluence was measured in a temperature- and humidity-controlled incubator (37° C., 5% CO2) over a 20-day period at 6-hour intervals by the IncuCyte S3. […]
Compound 176 and a comparator BRD9 inhibitor were serially diluted in DMSO and 200 nL were dispensed into 96 well tissue-culture treated plates by the Echo acoustic liquid handler. Yamato cells were counted and adjusted to 11,000 cells/mL with DMEM media supplemented with 10% heat-inactivated FBS. […]

The subject of a further data set is Yamato-SS cells. Put plainly: Confluence (growth) over time in Yamato-SS cells. Format: cell-based, human.
Data set [4] relates to Yamato-SS xenograft model. In words: Tumor volume in the Yamato-SS xenograft (CDX) model. It counts as in vivo, mouse.
The nature of another data set: Plasma stability, rat. It counts as in vitro ADME.
A further data set can be described thus: Plasma stability, mouse. It counts as in vitro ADME.
The nature of a further data set: IV PK, mouse. As to conditions: for IV PK AUC(0-last) / IV PK Cmax: dose-normalised; for clearance / Vd / half-life: in vivo; for clearance: read-out: IV PK CL; for Vd: read-out: IV PK Vdss; for half-life: read-out: IV PK t1/2 (converted). It counts as in vivo.
The nature of the next data set: PPB, human. It counts as in vitro ADME. The note with it: plasma.
The target in the next data set is hERG (Homo sapiens, UniProt Q12809). Put plainly: hERG. (The hERG channel carries a current that helps repolarise heart muscle cells.)
The next data set in a line: PPB, dog. Format: in vitro ADME. The note with it: plasma.
The nature of data set [5]: Hepatocyte stability, rat. It counts as in vitro ADME. As to conditions: rat hepatocytes; read-out: Hepatocyte stability, Clint scaled ws.

Chain of hERG (Q12809 whole entry): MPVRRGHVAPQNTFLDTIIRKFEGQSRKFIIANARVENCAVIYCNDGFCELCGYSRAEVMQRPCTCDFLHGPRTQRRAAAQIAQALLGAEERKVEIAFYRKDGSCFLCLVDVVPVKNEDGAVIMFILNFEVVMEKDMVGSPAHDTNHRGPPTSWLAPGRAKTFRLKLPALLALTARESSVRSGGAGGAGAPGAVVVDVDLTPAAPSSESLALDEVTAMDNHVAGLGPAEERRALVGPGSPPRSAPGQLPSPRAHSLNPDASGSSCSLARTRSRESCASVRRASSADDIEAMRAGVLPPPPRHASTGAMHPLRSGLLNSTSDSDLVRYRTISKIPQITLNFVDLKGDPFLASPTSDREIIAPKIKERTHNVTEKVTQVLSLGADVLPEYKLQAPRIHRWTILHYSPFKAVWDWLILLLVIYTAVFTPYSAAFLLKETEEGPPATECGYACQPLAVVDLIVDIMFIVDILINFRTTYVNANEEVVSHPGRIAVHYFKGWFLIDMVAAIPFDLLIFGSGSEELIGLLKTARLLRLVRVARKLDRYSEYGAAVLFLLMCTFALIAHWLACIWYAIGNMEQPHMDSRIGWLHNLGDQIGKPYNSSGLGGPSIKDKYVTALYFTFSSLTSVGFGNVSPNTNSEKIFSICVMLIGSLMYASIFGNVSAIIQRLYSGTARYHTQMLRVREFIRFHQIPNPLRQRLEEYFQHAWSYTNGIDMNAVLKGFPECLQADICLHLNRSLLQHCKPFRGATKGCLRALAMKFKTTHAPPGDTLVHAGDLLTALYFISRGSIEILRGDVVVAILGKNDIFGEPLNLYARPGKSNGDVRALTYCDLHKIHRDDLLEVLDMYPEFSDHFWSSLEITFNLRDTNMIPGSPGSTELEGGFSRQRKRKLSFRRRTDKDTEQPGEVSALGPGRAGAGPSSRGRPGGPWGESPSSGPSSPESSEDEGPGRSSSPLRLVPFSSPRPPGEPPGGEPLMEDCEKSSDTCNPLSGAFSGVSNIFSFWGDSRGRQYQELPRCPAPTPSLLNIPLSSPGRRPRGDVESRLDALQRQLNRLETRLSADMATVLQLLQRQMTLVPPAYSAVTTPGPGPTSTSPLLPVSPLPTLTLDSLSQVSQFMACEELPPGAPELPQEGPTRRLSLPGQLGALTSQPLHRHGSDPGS

As usually defined, the CLint scaled is the rate of metabolic loss divided by the concentration. The fraction unbound is free concentration divided by total concentration. Higher therefore signals weak binding. Usually IC50 stands for the concentration needed to halve the response being measured. Take `COc1cc(-c2cn(C)c(=O)c(C)c2C)cc(OC)c1CN1CCC(N2CCN(c3ccc(NC4CCC(=O)NC4=O)cc3F)CC2)C(F)(F)C1` (centres unmarked) [Compound 172, 3-[4-[4-[1-[[2,6-dimethoxy-4-(1,4,5-trimethyl-6-oxo-3-pyridyl)phenyl]methyl]-3,3-difluoro-4-piperidyl]piperazin-1-yl]-3-fluoro-anilino]piperidine-2,6-dione]: the “in-vivo BRD9 degradation, western blot” value on BRD9 (single dose 10 or 75 mg/kg PO, FIG. 12, not BRD7) is reported as “dose dependent in-vivo BRD9 degradation”. The intrinsic metabolic clearance (CLint scaled) in data set [1] worked out at 38 mL/min/kg. In addition, in “PO PK, rat”, the “PO PK AUC(0-last)” value is 520 (h*ng/mL)/(mg/kg), the “PO PK Cmax” value is on record as 92 (ng/mL)/(mg/kg), the bioavailability was 49% and the half-life was 258 min. In [2], the intrinsic metabolic clearance (CLint scaled) stood at 9.4 mL/min/kg. In the data set “Plasma stability, dog”, the “Stability (plasma) % remaining @3 hrs” value is 80.2%. Moreover, the “confluence as a percentage of control” value in data set [3] was “A dose response is clearly visible”. Moreover, in the data set on Yamato-SS cells (Yamato-SS cells, FIG. 4), the “confluence as a percentage of control over time” value is reported as “growth inhibition”. Besides, in [4] (Yamato-SS xenograft model, FIG. 7), the “response of tumor volume to various concentrations” value is “dose dependent efficacy”. Moreover, the “Stability (plasma) % remaining @3 hrs” value in the data set “Plasma stability, rat” is given as 97.0%. Also, the “Stability (plasma) % remaining @3 hrs” value in the data set “Plasma stability, mouse” is given as 90.3%. In addition, in the data set “IV PK, mouse”, the “IV PK AUC(0-last)” value is recorded as 4942 (h*ng/mL)/(mg/kg), the “IV PK Cmax” value is 1228 [ng/mL]/(mg/kg), the clearance is 3.4 mL/min/kg and the Vd came to 1.1 L/kg. The half-life in “IV PK, mouse” is 216 min. Moreover, the fraction unbound in the data set “PPB, human” is 0.088. Besides, the half-inhibitory concentration (IC50) against hERG was greater than 30 µM. Besides, the unbound share (fraction unbound) in “PPB, dog” was 0.039. Besides, the CLint scaled in [5] amounted to 15 mL/min/kg.

Turning to `COc1cc(-c2cn(C)c(=O)c(C)c2C)cc(OC)c1CN1CCC(N2CCN(c3ccc(NC4CCC(=O)NC4=O)cc3F)CC2)C(F)(F)C1` (single isomer, unassigned) [Compound 176, 3-[4-[4-[1-[[2,6-dimethoxy-4-(1,4,5-trimethyl-6-oxo-3-pyridyl)phenyl]methyl]-3,3-difluoro-4-piperidyl]piperazin-1-yl]-3-fluoro-anilino]piperidine-2,6-dione], the “in-vivo BRD9 degradation, western blot” value at BRD9 (single dose 3, 12 or 50 mg/kg PO, 1, 4, 12, 24, 48 hr, FIG. 19) is on record as “time dependent in-vivo BRD9 degradation”. In [1], the CLint scaled was 30 mL/min/kg. For the same compound, in “PO PK, rat”, the “PO PK AUC(0-last)” value is reported as 656 (h*ng/mL)/(mg/kg), the “PO PK Cmax” value is listed as 75 (ng/mL)/(mg/kg), the bioavailability is 83% and the half-life is 306 min. Further, in data set [2], the CLint scaled was 9.4 mL/min/kg. Also, the “Stability (plasma) % remaining @3 hrs” value in the data set “Plasma stability, dog” is on record as 100%. Also, the “confluence as a percentage of control” value in data set [3] is on record as “A dose response is clearly visible”. The “confluence as a percentage of control, single dose long term growth evaluation” value with Yamato-SS cells (BAF perturbed Yamato-SS model, various concentrations, FIG. 16) was “selective growth inhibition”. Besides, the “mean tumor volume+SEM” value in data set [4] (synovial sarcoma CDX model (Yamato SS), various concentrations, FIG. 21) is recorded as “efficacy”. Moreover, in “Plasma stability, rat”, the “Stability (plasma) % remaining @3 hrs” value is on record as 88%. Further, the “Stability (plasma) % remaining @3 hrs” value in “Plasma stability, mouse” is on record as 85%. Also, in “IV PK, mouse”, the “IV PK AUC(0-last)” value is reported as 2724 (h*ng/mL)/(mg/kg), the “IV PK Cmax” value was 720 [ng/mL]/(mg/kg), the clearance is 6.2 mL/min/kg and the Vd came to 2 L/kg. Also, the half-life in the data set “IV PK, mouse” was 222 min. Besides, in “PPB, human”, the fraction unbound is 0.067. Moreover, the IC50 against hERG is greater than 30 µM. In addition, the fraction unbound in the data set “PPB, dog” is 0.065. The intrinsic clearance (CLint scaled) in [5] came to 14.2 mL/min/kg.
